Experimental data: patent publication US4404138A, “3-[2-(Azabicyclo) ethyl]-1,2,3,4-tetrahydro-5H-[1]benzopyrano[3,4-c]pyridin-5-ones” (Warner-Lambert Company, priority 1982, dated 1983)
Structures can show the parent of a compound that is named as a salt.

Test system: Conscious guinea pigs exposed to an aerosol of methacholine
Assay: Methacholine aerosol collapse time in conscious guinea pigs (anticholinergic test)
Assay type: in vivo
Settings: 25 mg/kg intraperitoneally; 10 minutes methacholine aerosol; time not given
Method: Conscious guinea pigs, six at a time, are put into a sealed chamber and exposed for 10 minutes to an aerosol of methacholine.

With `COc1cc2oc(=O)c3c(c2cc1OC)CCN(CCN1CC2CCC(CC2)C1)C3.Cl.Cl` [R1=MeO, R2=MeO, R3=H, X=drawing 10, 3-[2-(3-Azabicyclo[3.2.2]non-3-yl)ethyl]-1,2,3,4-tetrahydro-8,9-dimethoxy-5H-[1]benzopyrano[3,4-c]pyridin-5-one dihydrochloride] as the molecule, how does the “(Minutes Protection), given in words” value read?
The value was “Active”.

For `CC(=O)Nc1cc2c3c(c(=O)oc2cc1C)CN(CCN1CC2CCC(CC2)C1)CC3` [R1=NHCOCH3, R2=Me, R3=H, X=drawing 10, N-{3-[2-(3-Azabicyclo[3.2.2]non-3-yl)ethyl]-1,2,3,4-tetrahydro-8-methyl-5-oxo-2H-[1]benzopyrano[3,4-c]pyridin-9-yl}-acetamide], which “(Minutes Protection), given in words” value is on record?
The value was “Active”.

Same assay, conditions: collapse time; 25 mg/kg intraperitoneally; 10 minutes methacholine aerosol; Control 1.9 to 2.0

With `O=c1oc2c(ccc3ccccc32)c2c1CN(CCN1CC3CCC(CC3)C1)CC2` [R1=H, R2+R3=CH CHCHCH, X=drawing 10, 2-[2-(3-Azabicyclo[3.2.2]non-3-yl)ethyl]-1,2,3,4-tetrahydro-12H-naphtho[2',1',:5,6]pyrano[3,4-c]pyridin-12-one dihydrochloride] as the molecule, how does the “(Minutes Protection)” value read?
The value was 2.7 min.

How did the “(Minutes Protection)” value turn out when `COc1cc2oc(=O)c3c(c2cc1OC)CCN(CCN1CC2CCC1CC2)C3` [R1=MeO, R2=MeO, R3=H, X=drawing 11, 3-[2-(2-Azabicyclo[2.2.2]oct-2-yl)ethyl]-1,2,3,4-tetrahydro-8,9-dimethoxy-5H-[1]benzopyrano[3,4-c]pyridine-5-one] was run?
Its value is 7.6 min.

Which “(Minutes Protection)” value does the source give for `Cc1ccc2c3c(c(=O)oc2c1)CN(CCN1CC2CCC1CC2)CC3` [R1=H, R2=Me, R3=H, X=drawing 11, 3-[2-(2-Azabicyclo[2.2.2]oct-2-yl)ethyl]-1,2,3,4-tetrahydro-8-methyl-5H-[1]benzopyrano[3,4-c]pyridin-5-one] here?
The value was 2.3 min.

Which “(Minutes Protection)” value does the source give for `COc1ccc2c3c(c(=O)oc2c1)CN(CCN1CC2CCC1CC2)CC3` [R1=H, R2=MeO, R3=H, X=drawing 11, 3-[2-(2-Azabicyclo[2.2.2]oct-2-yl)ethyl]-1,2,3,4-tetrahydro-8-methoxy-5H-[1]benzopyrano[3,4-c]pyridin-5-one] here?
Its value is 10.0 min.

With `Cc1cc2oc(=O)c3c(c2cc1NC(=O)c1ccccc1)CCN(CCN1CC2CCC(CC2)C1)C3` [R1=NHCOPh, R2=Me, R3=H, X=drawing 10, N-{3-[2-(3-Azabicyclo[3.2.2]non-3-yl)ethyl]-1,3,4,5-tetrahydro-8-methyl-5-oxo-2H-[1]benzopyrano[3,4-c]pyridin-9-yl}-benzamide] as the molecule, how does the “(Minutes Protection)” value read?
The value was 3.8 min.

With `COc1ccc2c3c(c(=O)oc2c1)CN(CCN1CC2CCC(CC2)C1)CC3.Cl.Cl` [R1=H, R2=MeO, R3=H, X=drawing 10, 3-[2-(3-Azabicyclo[3.2.2]non-3-yl)ethyl]-1,2,3,4-tetrahydro-8-methoxy-5H-[1]benzopyrano[3,4-c]pyridin-5-one, dihydrochloride] as the molecule, how does the “(Minutes Protection)” value read?
Its value is 6.0 min.

How did the “(Minutes Protection)” value turn out when `Cc1ccc2c3c(c(=O)oc2c1)CN(CCN1CC2CCCC(C2)C1)CC3` [R1=H, R2=Me, R3=H, X=drawing 12, 3-[2-(3-Azabicyclo[3.3.1]non-3-yl)ethyl]-1,2,3,4-tetrahydro-8-methyl-5H-[1]benzopyrano[3,4-c]pyridin-5-one] was run?
Its value is 3.1 min.

Which “(Minutes Protection)” value does the source give for `Cl.Cl.O=c1oc2cc(-c3ccccc3)ccc2c2c1CN(CCN1CC3CCC(CC3)C1)CC2` [R1=H, R2=Ph, R3=H, X=drawing 10, 3-[2-(3-Azabicyclo[3.2.2]non-3-yl)ethyl]-1,2,3,4-tetrahydro-8-phenyl-5H-[1]benzopyrano[3,4-c]pyridin-5-one, dihydrochloride] here?
The value was 2.1 min.

For `Cc1cc2oc(=O)c3c(c2cc1N)CCN(CCN1CC2CCC(CC2)C1)C3` [R1=NH2, R2=Me, R3=H, X=drawing 10, 9-Amino-3-[2-(3-azabicyclo[3.2.2]non-3-yl)ethyl]-1,2,3,4-tetrahydro-8-methyl-5H-[1]benzopyrano[3,4-c]pyridin-5-one], which “(Minutes Protection)” value is on record?
Its value is 1.9 min.

How did the “(Minutes Protection)” value turn out when `O=c1oc2ccccc2c2c1CN(CCN1CC3CCCC(C3)C1)CC2` [R1=H, R2=H, R3=H, X=drawing 12, 3-[2-(3-Azabicyclo[3.3.1]non-3-yl)ethyl]-1,2,3,4-tetrahydro-5H-[1]benzopyrano[3,4-c]pyridin-5-one] was run?
The value was 3.3 min.

Which “(Minutes Protection)” value does the source give for `O=c1oc2cc3c(cc2c2c1CN(CCN1CC4CCC(CC4)C1)CC2)OCO3` [R1+R2=OCH2O, R3=H, X=drawing 10, 3-[2-(3-Azabicyclo[3.2.2]non-3-yl)ethyl]-1,2,3,4-tetrahydro-5H-[1,3]benzodioxolo[5',6':5,6]pyrano[3,4-c]pyridin-5-one] here?
Its value is 2.3 min.

For `CCc1ccc2c3c(c(=O)oc2c1)CN(CCN1CC2CCC(CC2)C1)CC3.Cl.Cl` [R1=H, R2=Et, R3=H, X=drawing 10, 3-(2-(3-Azabicyclo[3,2,2]non-3-yl)ethyl]-8-ethyl-1,2,3,4-tetrahydro-5H-benzopyrano[3,4-c]pyridin-5-one, dihydrochloride], which “(Minutes Protection)” value is on record?
The value was 6.8 min.

`COc1ccc2c3c(c(=O)oc2c1)CN(CCN1CC2CCCC(C2)C1)CC3` [R1=H, R2=MeO, R3=H, X=drawing 12, 3-[2-(3-Azabicyclo[3.3.1]non-3-yl)ethyl]-1,2,3,4-tetrahydro-8-methoxy-5H-[1]benzopyrano[3,4-c]pyridin-5-one] was tested. Which “(Minutes Protection)” value did it give?
The value was 7.3 min.

With `O=c1oc2cc(O)ccc2c2c1CN(CCN1CC3CCC(CC3)C1)CC2` [R1=H, R2=OH, R3=H, X=drawing 10] as the molecule, how does the “(Minutes Protection)” value read?
Its value is 6.1 min.

With `COc1cc2oc(=O)c3c(c2cc1OC)CCN(CCN1CC2CCCC(C2)C1)C3` [R1=MeO, R2=MeO, R3=H, X=drawing 12, 3-[2-(3-Azabicyclo[3.3.1]non-3-yl)ethyl]-1,2,3,4-tetrahydro-8,9-dimethoxy-5H-[1]benzopyrano[3,4-c]pyridin-5-one] as the molecule, how does the “(Minutes Protection)” value read?
The value was 6.6 min.

How did the “(Minutes Protection)” value turn out when `Cc1cc2oc(=O)c3c(c2cc1Cl)CCN(CCN1CC2CCCC(C2)C1)C3` [R1=Cl, R2=Me, R3=H, X=drawing 12] was run?
Its value is 2.6 min.

With `COc1ccc2c3c(c(=O)oc2c1OC)CN(CCN1CC2CCC(CC2)C1)CC3.Cl.Cl` [R1=H, R2=MeO, R3=MeO, X=drawing 10, 3-[2-(3-Azabicyclo[3.2.2]non-3-yl)ethyl]-1,2,3,4-tetrahydro-7,8-dimethoxy-5H-[1]benzopyrano[3,4-c]pyridin-5-one dihydrochloride] as the molecule, how does the “(Minutes Protection)” value read?
Its value is 3.0 min.

Which “(Minutes Protection)” value does the source give for `Cc1cc2oc(=O)c3c(c2cc1[N+](=O)[O-])CCN(CCN1CC2CCC(CC2)C1)C3` [R1=NO2, R2=Me, R3=H, X=drawing 10, 3-[2-(3-Azabicyclo[3.2.2]non-3-yl)ethyl]-1,2,3,4-tetrahydro-8-methyl-9-nitro-5H-[1]benzopyrano[3,4-c]pyridin-5-one] here?
The value was 1.9 min.

`O=c1oc2ccccc2c2c1CN(CCN1CC3CCC(CC3)C1)CC2` [R1=H, R2=H, R3=H, X=drawing 10, 3-[2-(3-Azabicyclo[3.2.2]non-3-yl)ethyl]-1,2,3,4-tetrahydro-5H-[1]benzopyrano[3,4-c]pyridin-5-one] was tested. Which “(Minutes Protection)” value did it give?
The value was 5.2 min.

For `Cc1cc2oc(=O)c3c(c2cc1C)CCN(CCN1CC2CCC(CC2)C1)C3` [R1=Me, R2=Me, R3=H, X=drawing 10, 3-[2-(3-Azabicyclo[3.2.2]non-3-yl)ethyl]-1,2,3,4-tetrahydro-8,9-dimethyl-5H-[1]benzopyrano[3,4-c]pyridin-5-one], which “(Minutes Protection)” value is on record?
The value was 5.1 min.

Which “(Minutes Protection)” value does the source give for `CC(C)c1ccc2c3c(c(=O)oc2c1)CN(CCN1CC2CCC(CC2)C1)CC3.Cl.Cl` [R1=H, R2=CHMe2, R3=H, X=drawing 10, 3-[2-(3-Azabicyclo[3.2.2]non-3-yl)ethyl]-1,2,3,4-tetrahydro-8-(1-methylethyl)-5H-[1]benzopyrano[3,4-c]pyridin-5-one dihydrochloride] here?
Its value is 6.2 min.

With `CCOc1cc2oc(=O)c3c(c2cc1OCC)CCN(CCN1CC2CCC(CC2)C1)C3` [R1=EtO, R2=EtO, R3=H, X=drawing 10, 3-[2-(3-Azabicyclo[3.2.2]non-3-yl)ethyl]-1,2,3,4-tetrahydro-8,9-diethoxy-5H-[1]benzopyrano[3,4-c]pyridin-5-one] as the molecule, how does the “(Minutes Protection)” value read?
Its value is 6.3 min.

`CC(C)(C)c1ccc2c3c(c(=O)oc2c1)CN(CCN1CC2CCC(CC2)C1)CC3.Cl.Cl` [R1=H, R2=CMe3, R3=H, X=drawing 10, 3-[2-(3-Azabicyclo[3.2.2]non-3-yl)ethyl]-8-(1,1-dimethylethyl)-1,2,3,4-tetrahydro-5H-[1]benzopyrano[3,4-c]pyridin-5-one, dihydrochloride] was tested. Which “(Minutes Protection)” value did it give?
The value was 3.4 min.

How did the “(Minutes Protection)” value turn out when `Cc1cc2oc(=O)c3c(c2cc1Cl)CCN(CCN1CC2CCC(CC2)C1)C3` [R1=Cl, R2=Me, R3=H, X=drawing 10, 3-[2-(3-Azabicyclo[3.2.2]non-3-yl)ethyl]-9-chloro-1,2,3,4-tetrahydro-8-methyl-5H-[1]benzopyrano[3,4-c]pyridin-5-one] was run?
Its value is 2.1 min.

`Br.Br.O=c1oc2cc(O)c(O)cc2c2c1CN(CCN1CC3CCC(CC3)C1)CC2` [R1=OH, R2=OH, R3=H, X=drawing 10, 3-[2-(3-Azabicyclo[3.2.2]non-3-yl)ethyl]-1,2,3,4-tetrahydro-8,9-dihydroxy-5H-[1]benzopyrano[3,4-c]pyridin-5-one dihydrobromide] was tested. Which “(Minutes Protection)” value did it give?
Its value is 2.1 min.

How did the “(Minutes Protection)” value turn out when `Cc1ccc2c3c(c(=O)oc2c1)CN(CCN1CC2CCC(CC2)C1)CC3` [R1=H, R2=Me, R3=H, X=drawing 10, 3-[2-(3-Azabicyclo[3.2.2]non-3-yl)ethyl]-1,2,3,4-tetrahydro-8-methyl-5H-[1]benzopyrano[3,4-c]pyridin-5-one] was run?
The value was 5.0 min.
